Columns and labels:
[1] = Total Oxygen radical Scavenging Capacity (TOSC) assay; type: biochemical; details: for total antioxidant activities, times higher than Trolox: in momordica cochinchinensis aril; for antioxidant capacity, higher than Trolox: in the gac oil
Method: (§1) Antioxidant capacities were assessed by the overall abilities of the compounds to suppress peroxyl radicals generated from the thermal homolysis of 2,2′-azobis-amidinopropane. Stock solutions of all samples were diluted 1/100 and 1/1000. […] However, at a lower concentration (dilution of 1/1000), the gac aril provided the highest peroxyl radical-scavenging capacity, 1.8 and 1.3 times as much as β-carotene and lycopene, respectively (FIG. 1b).
Using the TOSC method, it was apparent that total antioxidant activities of beta-carotene and lycopene in momordica cochinchinensis aril were high (2 times higher than Trolox), an analogue of Vitamin E commonly used a gold standard. The comparative TOSC values (cTOSC) of gac (Redmelon™) aril maintains 5.4 times greater than Trolox. […] The results are summarized below in the following table

[2] = Oxygen Radical Absorbance capacity (ORAC) assay; type: biochemical; details: 1/100 dilution of stock solutions; FIG. 1a
Method: Those figures depict graphical comparison of the antioxidant values of momordica cochichinchinensis (gac) aril, β-carotene, and lycopene using […] (ORAC) assay, ORAC values were obtained using a Trolox standard linear regression line.
as §1

| SMILES | cTOSC ([1]; comparative TOSC value) | rTOSC ([1]; peroxyl radical scavenging capacity) | total antioxidant activities, times higher than Trolox ([1]; relative to Trolox) [times] | antioxidant capacity, higher than Trolox ([1]; relative to Trolox) [%] | peroxyl radical scavenging capacity (rTOSC), times greater than Trolox ([1]; relative to Trolox) [times] | ability to scavenge peroxyl radicals, times as much as the Redmelon™ aril [2] [times] | ability to scavenge peroxyl radicals, times as much as β-carotene [2] [times] |
| --- | --- | --- | --- | --- | --- | --- | --- |
| Cc1c(C)c2c(c(C)c1O)CCC(C)(C(=O)O)O2 (stereo not drawn) [Trolox] | 1.00 | 4.51 |  |  |  |  |  |
| CC1=C(/C=C/C(C)=C/C=C/C(C)=C/C=C/C=C(C)/C=C/C=C(C)/C=C/C2=C(C)CCCC2(C)C)C(C)(C)CCC1 [beta-carotene] |  |  | 2 | 50 |  |  |  |
| CC(C)=CCC/C(C)=C/C=C/C(C)=C/C=C/C(C)=C/C=C/C=C(C)/C=C/C=C(C)/C=C/C=C(\C)CCC=C(C)C [lycopene] |  |  | 2 | 50 | 24 | 1.4 | 2.4 |

From US8668942B2, “Skin anti-oxidant enhancing formulation and associated method” (Fishrock Laboratories, Inc., priority 2012, dated 2014)
